Laboratory results reported in patent US20230416334A1, “CELL-PENETRATING PEPTIDES” (FUNDACIÓ HOSPITAL UNIVERSITARI VALL D'HEBRON - INSTITUT DE …, priority 2020, published 2023).

B1: CD300f: whole CD300f protein, conjugated onto micelles and tested as CPP (protein, UniProt Q8TDQ1 20-290, looked up)
CMRF35-like molecule 1: TQITGPTTVNGLERGSLTVQCVYRSGWETYLKWWCRGAIWRDCKILVKTSGSEQEVKRDRVSIKDNQKNRTFTVTMEDLMKTDADTYWCGIEKTGNDLGVTVQVTIDPAPVTQEETSSSPTLTGHHLDNRHKLLKLSVLLPLIFTILLLLLVAASLLAWRMMKYQQKAAGMSPEQVLQPLEGDLCYADLTLQLAGTSPQKATTKLSSAQVDQVEVEYVTMASLPKEDISYASLTLGAEDQEPTYCNMGHLSSHLPGRGPEEPTEYSTISRP
modifications: conjugated onto micelles
notes: whole CD300f protein, conjugated onto micelles and tested as CPP

Legend:
[1] = system: binding of CD300f to plastic-immobilized SM; assay: Peptide inhibition of CD300f-Ig binding to plastic-immobilized sphingomyelin (epitope mapping); parameters: species or system human; details: co-incubation of peptide with CD300f-Ig, FIG. 1
From the text: FIG. 1, related to Example 1, is a bar diagram showing the binding capacity of the indicated peptides to sphingomyelin (SM). They y-axis represents absorbance (%). “C” represents the control; “1” represents Peptide 1 of SEQ ID NO: 12; “2” represents Peptide 2 of SEQ ID NO: 13; “3” represents Peptide 3 of SEQ ID NO: 14; “4” represents Peptide 4 of SEQ ID NO: 15; “5” represents Peptide 5 of SEQ ID NO: 5; “6” represents Peptide 6 of SEQ ID NO: 6; “7” represents Peptide 7 of SEQ ID NO: 7; “8” represents Peptide 8 of SEQ ID NO: 16; and “9” represents Peptide 9 of SEQ ID NO: 17; and “10” represents Peptide 10 of SEQ ID NO: 18; FIG. 2, related to Example 1, is a bar diagram showing the binding capacity of the indicated peptides to sphingomyelin (SM). They y-axis represents absorbance (%). “A” represents the control; “B” represents DMSO; “C” represents Peptide 1; “D” represents Peptide 2; “E” represents Peptide 7; “F” represents Peptide 7 C5S (SEQ ID NO: 8); “G” represents Peptide 7 W3A (SEQ ID NO: 9); and “H” represents Peptide 7 R6G (SEQ ID NO: 10). In an attempt to identify the sites of interaction of CD300f with Sphingomyelin (SM), the inventors performed a peptide-based epitope mapping approach. 24 overlapping, 20mer peptides were designed with a 15-aa overlap between successive peptides covering the Ig and stem extracellular sequences of human CD300f. It was analyzed whether any of those 24 peptides could inhibit binding of CD300f to plastic-immobilized SM. Only three of them, peptides 5 (SEQ ID NO:5), 6 (SEQ ID NO:6) and 7 (SEQ ID NO:7), which contained the sequence […] Moreover, different amino acids of the sequence […] NO: 2) were mutated to try to map the interaction with the phospholipid.

HCT116 cells = assay: Internalization of 5-DTAF labelled polymeric micelles by flow cytometry; assay type: cell-based; details: 1 mg/ml on 5-DTAF labelled Pluronic F127 micelles, vs non conjugated micelles, FIGS. 4 and 5
From the text: FIG. 4, related to Example 2, is a diagram showing the cell internalization rates of polymeric micelles conjugated to the indicated peptides in HCT116 cells. The y-axis represents fluorescence intensity (F.U.) (Mean±SEM) and the x-axis represents the time (min).
FIG. 5, related to Example 2, is a diagram showing the cell internalization rates of polymeric micelles conjugated to the indicated peptides in HCT116 cells. The y-axis represents fluorescence intensity (F.U.) (Mean±SEM) and the x-axis represents the time (min).
Polymeric micelles (PM) were prepared using the film hydration technique. Briefly, the polymers were individually weighted and dissolved in a mixture of methanol:ethanol (1:1). […]
Flow cytometry was used to verify the internalization of 5-DTAF-fluorescently labeled PM in MCF-7 and HCT116 cell lines. For the quantitative fluorescence-activated cell sorting (FACS), 2×10^4 cells were seeded in complete medium in 96 well plates for 24 hours to allow adhesion. […] The plate was analyzed in a cytometer Fortessa (BD Biosciences, USA). Data was analyzed with FCS Express 4 Flow research edition software (De Novo Software, Los Angeles, USA). […] For each sample, at least 10000 individual cells were collected and the mean fluorescence intensity was evaluated. […]

Molecule | inhibition of binding of CD300f to sphingomyelin (SM) [1] | internalization of peptide- or protein-functionalized micelles (HCT116 cells)
CVYRSGWETYLKWWCRGAIW [Peptide 5] | inhibited binding | –
GWETYLKWWCRGAIWRDCKI [Peptide 6] | inhibited binding | –
LKWWCRGAIWRDCKILVKTS [Peptide 7] | inhibited binding | –
B1 | – | better CPPs than the ones currently available in the market
